The term inhibition denotes the drop in the measured response relative to a control, in per cent.

A short description of assay [1]: Mouse hot-water tail-flick test. Type of assay: in vivo. Conditions: orally administered. Here is the method: The mouse “tail flick” test was used to assay the relative antinociceptive activity of compositions containing a compound to be assayed. This assay was substantially that disclosed by Xie et al., 2005 J. Neurosci 25:409-416.
The mouse hot-water tail-flick test was performed by placing the distal third of the tail in a water bath maintained at 52° C. The latency until tail withdrawal from the bath was determined and compared among the treatments. A 10 second cutoff was used to avoid tissue damage. Data are converted to percentage of antinociception by the following formula: (response latency−baseline latency)/(cutoff−baseline latency)×100 to generate dose-response curves. […] Relative potency was determined as a ratio of the A50 values.
To assess tolerance to the antinociceptive effect, the compound was administered twice daily for 7 days at an A90 dose (dose that results in a 90% antinociceptive effect in the 52° C. warm-water tail-flick test), and the tail-flick test was performed daily after the a.m. dose. […] Assays were typically carried out separately using at least 32 and 56 mg/kg dosages, with some assays also separately carried out at 18 and 100 mg/kg.
A general note: Thermal pain tests record how soon the animal reacts.

In assay [2] the test system is TNF-α release from primary human astrocytes. Description: LPS-induced cytokine release from primary human astrocytes, TNF-α. Type of assay: cell-based. Here is the method:
(§1) The following study was undertaken to investigate whether contemplated compounds and (+)NLX affect LPS-induced release of the pro-inflammatory cytokine (IL-1β, IL-6 and TNF-α) release from primary human astrocytes. […]
(§2) Primary astrocytes culture was prepared according to the provider's instructions (Lonza). The adherent astrocytes were trypsinized by 0.25% trypsin-EDTA, then collected and sub-cultured in 12-well plate (1.2 ml/well). […] Vehicle groups were pretreated with 0.1% DMSO only. Following addition of LPS, incubation continued for 24 hours. Culture medium was used as the blank and the levels of cytokines, TNF-α, IL-6 and IL-1β in 200 μl of culture medium were determined. Each well was sampled twice.
(§3) Plates were washed 3 times with ice-cold 50 mM Tris HCl (pH 7.4) and incubated at 30° C. with 200 μl medium derived from the above mentioned conditions. Plates were washed 3 times with ice-cold 50 mM Tris HCl (pH 7.4) and incubated at 30° C. with 0.5 μg/well un-conjugated rabbit anti-anti-INF-α, -IL-6 and -IL-1β for 1 hour. After two 1 minute washes with 50 mM Tris HCl (pH 7.4), each well was incubated in 0.5 μg/well FITC-conjugated anti-rabbit IgG (human and mouse absorbed) for 1 hour at 30° C. Plates were washed twice with 200 μl ice-cold Tris HCl, pH 7.4 and the residual […] signals were determined by multimode plate reader, DTX880 (Beckman).

The test system of assay [3] is IL-6 release from primary human astrocytes. Description: LPS-induced cytokine release from primary human astrocytes, IL-6. Type of assay: cell-based. Here is the method: as §1, §2, §3
Assay [4] concerns IL-1β release from primary human astrocytes. As to the kind of experiment: LPS-induced cytokine release from primary human astrocytes, IL-1β. Type of assay: cell-based. Here is the method: as §1, §2, §3
In the next assay the target is filamin A (Homo sapiens, UniProt P21333). Conditions: read-out: affinity of binding to filamin A; cited from earlier work.
In assay [5] the target is Bn-VAKGL pentapeptide of filamin A (FLNA) (Homo sapiens, UniProt P21333). As to the kind of experiment: FITC-NLX-based FLNA screening assay (FLNA peptide binding assay). Conditions: 10 nM FITC-NLX, read-out: Percent inhibition of FITC-NLX binding. Here is the method: The final assay volume is 100 μl.
Compounds are tested in triplicate or quadruplicate.

The next assay concerns the target T1, mu opiate receptor (MOR) (Rattus norvegicus, UniProt P33535).
T1 construct: from tissue; host or cells: striatal membrane preparation (rat striatum)
As to the kind of experiment: MOR agonist activity, [35S]GTPγS binding assay using striatal membranes. Also on record: MOR agonist activity, [35S]GTPγS binding to Gαo: reference not given here. Type of assay: biochemical. Here is the method: To assess the mu opiate receptor (MOR) agonist activity of positive compounds from the FLNA screening, compounds were tested in a [^35S]GTPγS binding assay using striatal membranes.
Striatal tissue was homogenized in 10 volumes of ice cold 25 mM HEPES buffer, pH 7.4, which contained 1 mM EGTA, 100 mM sucrose, 50 μg/ml leupeptin, 0.04 mM PMSF, 2 μg/ml soybean trypsin inhibitor and 0.2% 2-mercaptoethanol. The homogenates were centrifuged at 800×g for 5 minutes and the supernatants were centrifuged at 49,000×g for 20 minutes. The resulting pellets were suspended in 10 volume of reaction buffer, which contained 25 mM HEPES, pH 7.5, 100 mM NaCl, 50 μg/ml leupeptin, 2 μg/ml soybean trypsin inhibitor, 0.04 mM PMSF and 0.02% […].
The resultant striatal membrane preparation (200 μg) was admixed and maintained (incubated) at 30° C. for 5 minutes in reaction buffer as above that additionally contained 1 mM MgCl2 and 0.5 nM [^35S]GTPγS (0.1 μCi/assay, PerkinElmer Life and Analytical Sciences) in a total volume of 250 μl and continued for 5 minutes in the absence or presence of 0.1-10 μM of an assayed compound of interest. The reaction was terminated by dilution with 750 μl of ice-cold reaction buffer that contained 20 mM MgCl2 and 1 mM EGTA and immediate centrifugation at 16,000×g for 5 minutes.
The resulting pellet was solubilized by sonicating for 10 seconds in 0.5 ml of immunoprecipitation buffer containing 0.5% digitonin, 0.2% sodium cholate and 0.5% NP-40. Normal rabbit serum (1 μl) was added to 1 ml of lysate and incubated at 25° C. for 30 minutes. Nonspecific immune complexes were removed by incubation with 25 μl of protein A/G-conjugated agarose beads at 25° C. for 30 minutes followed by centrifugation at 5,000×g at 4° C. for 5 minutes. The supernatant was divided and separately incubated at 25° C. for 30 minutes with antibodies raised against Gαo proteins (1:1,000 dilutions).
The immunocomplexes so formed were collected by incubation at 25° C. for 30 minutes with 40 μl of agarose-conjugated protein A/G beads and centrifugation at 5,000×g at 4° C. for 5 minutes. The pellet was washed and suspended in buffer containing 50 mM Tris-HCl, pH 8.0, and 1% NP-40. The radioactivity in the suspension was determined by liquid scintillation spectrometry. […] DAMGO (H-Tyr-D-Ala-Gly-N-MePhe-Gly-OH; 1 or 10 μM) was used as a positive control.
(GTPγS resists hydrolysis and so accumulates on activated G proteins.)

Setting [6] is: 10 pM compound 2 hours prior to LPS (1 μg/ml) and continued 24 hours.
[7] abbreviates: 1 nM compound 2 hours prior to LPS (1 μg/ml) and continued 24 hours.
Setting [8] is: 100 nM compound 2 hours prior to LPS (1 μg/ml) and continued 24 hours.
[9] abbreviates: 100 fM compound 2 hours prior to LPS (1 μg/ml) and continued 24 hours.

T1 sequence (P33535 whole entry): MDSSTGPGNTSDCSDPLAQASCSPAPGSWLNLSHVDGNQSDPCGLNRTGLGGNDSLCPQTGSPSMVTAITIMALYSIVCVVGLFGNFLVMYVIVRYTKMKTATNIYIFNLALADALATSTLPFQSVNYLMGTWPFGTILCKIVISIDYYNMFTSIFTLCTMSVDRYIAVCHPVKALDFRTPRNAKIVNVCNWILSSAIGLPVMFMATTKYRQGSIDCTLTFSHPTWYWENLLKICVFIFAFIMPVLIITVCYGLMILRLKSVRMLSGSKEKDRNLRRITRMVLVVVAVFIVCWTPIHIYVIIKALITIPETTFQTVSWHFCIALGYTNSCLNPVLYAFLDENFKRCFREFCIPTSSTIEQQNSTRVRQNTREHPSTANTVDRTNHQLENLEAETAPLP
Sequence of filamin A (P21333 whole entry): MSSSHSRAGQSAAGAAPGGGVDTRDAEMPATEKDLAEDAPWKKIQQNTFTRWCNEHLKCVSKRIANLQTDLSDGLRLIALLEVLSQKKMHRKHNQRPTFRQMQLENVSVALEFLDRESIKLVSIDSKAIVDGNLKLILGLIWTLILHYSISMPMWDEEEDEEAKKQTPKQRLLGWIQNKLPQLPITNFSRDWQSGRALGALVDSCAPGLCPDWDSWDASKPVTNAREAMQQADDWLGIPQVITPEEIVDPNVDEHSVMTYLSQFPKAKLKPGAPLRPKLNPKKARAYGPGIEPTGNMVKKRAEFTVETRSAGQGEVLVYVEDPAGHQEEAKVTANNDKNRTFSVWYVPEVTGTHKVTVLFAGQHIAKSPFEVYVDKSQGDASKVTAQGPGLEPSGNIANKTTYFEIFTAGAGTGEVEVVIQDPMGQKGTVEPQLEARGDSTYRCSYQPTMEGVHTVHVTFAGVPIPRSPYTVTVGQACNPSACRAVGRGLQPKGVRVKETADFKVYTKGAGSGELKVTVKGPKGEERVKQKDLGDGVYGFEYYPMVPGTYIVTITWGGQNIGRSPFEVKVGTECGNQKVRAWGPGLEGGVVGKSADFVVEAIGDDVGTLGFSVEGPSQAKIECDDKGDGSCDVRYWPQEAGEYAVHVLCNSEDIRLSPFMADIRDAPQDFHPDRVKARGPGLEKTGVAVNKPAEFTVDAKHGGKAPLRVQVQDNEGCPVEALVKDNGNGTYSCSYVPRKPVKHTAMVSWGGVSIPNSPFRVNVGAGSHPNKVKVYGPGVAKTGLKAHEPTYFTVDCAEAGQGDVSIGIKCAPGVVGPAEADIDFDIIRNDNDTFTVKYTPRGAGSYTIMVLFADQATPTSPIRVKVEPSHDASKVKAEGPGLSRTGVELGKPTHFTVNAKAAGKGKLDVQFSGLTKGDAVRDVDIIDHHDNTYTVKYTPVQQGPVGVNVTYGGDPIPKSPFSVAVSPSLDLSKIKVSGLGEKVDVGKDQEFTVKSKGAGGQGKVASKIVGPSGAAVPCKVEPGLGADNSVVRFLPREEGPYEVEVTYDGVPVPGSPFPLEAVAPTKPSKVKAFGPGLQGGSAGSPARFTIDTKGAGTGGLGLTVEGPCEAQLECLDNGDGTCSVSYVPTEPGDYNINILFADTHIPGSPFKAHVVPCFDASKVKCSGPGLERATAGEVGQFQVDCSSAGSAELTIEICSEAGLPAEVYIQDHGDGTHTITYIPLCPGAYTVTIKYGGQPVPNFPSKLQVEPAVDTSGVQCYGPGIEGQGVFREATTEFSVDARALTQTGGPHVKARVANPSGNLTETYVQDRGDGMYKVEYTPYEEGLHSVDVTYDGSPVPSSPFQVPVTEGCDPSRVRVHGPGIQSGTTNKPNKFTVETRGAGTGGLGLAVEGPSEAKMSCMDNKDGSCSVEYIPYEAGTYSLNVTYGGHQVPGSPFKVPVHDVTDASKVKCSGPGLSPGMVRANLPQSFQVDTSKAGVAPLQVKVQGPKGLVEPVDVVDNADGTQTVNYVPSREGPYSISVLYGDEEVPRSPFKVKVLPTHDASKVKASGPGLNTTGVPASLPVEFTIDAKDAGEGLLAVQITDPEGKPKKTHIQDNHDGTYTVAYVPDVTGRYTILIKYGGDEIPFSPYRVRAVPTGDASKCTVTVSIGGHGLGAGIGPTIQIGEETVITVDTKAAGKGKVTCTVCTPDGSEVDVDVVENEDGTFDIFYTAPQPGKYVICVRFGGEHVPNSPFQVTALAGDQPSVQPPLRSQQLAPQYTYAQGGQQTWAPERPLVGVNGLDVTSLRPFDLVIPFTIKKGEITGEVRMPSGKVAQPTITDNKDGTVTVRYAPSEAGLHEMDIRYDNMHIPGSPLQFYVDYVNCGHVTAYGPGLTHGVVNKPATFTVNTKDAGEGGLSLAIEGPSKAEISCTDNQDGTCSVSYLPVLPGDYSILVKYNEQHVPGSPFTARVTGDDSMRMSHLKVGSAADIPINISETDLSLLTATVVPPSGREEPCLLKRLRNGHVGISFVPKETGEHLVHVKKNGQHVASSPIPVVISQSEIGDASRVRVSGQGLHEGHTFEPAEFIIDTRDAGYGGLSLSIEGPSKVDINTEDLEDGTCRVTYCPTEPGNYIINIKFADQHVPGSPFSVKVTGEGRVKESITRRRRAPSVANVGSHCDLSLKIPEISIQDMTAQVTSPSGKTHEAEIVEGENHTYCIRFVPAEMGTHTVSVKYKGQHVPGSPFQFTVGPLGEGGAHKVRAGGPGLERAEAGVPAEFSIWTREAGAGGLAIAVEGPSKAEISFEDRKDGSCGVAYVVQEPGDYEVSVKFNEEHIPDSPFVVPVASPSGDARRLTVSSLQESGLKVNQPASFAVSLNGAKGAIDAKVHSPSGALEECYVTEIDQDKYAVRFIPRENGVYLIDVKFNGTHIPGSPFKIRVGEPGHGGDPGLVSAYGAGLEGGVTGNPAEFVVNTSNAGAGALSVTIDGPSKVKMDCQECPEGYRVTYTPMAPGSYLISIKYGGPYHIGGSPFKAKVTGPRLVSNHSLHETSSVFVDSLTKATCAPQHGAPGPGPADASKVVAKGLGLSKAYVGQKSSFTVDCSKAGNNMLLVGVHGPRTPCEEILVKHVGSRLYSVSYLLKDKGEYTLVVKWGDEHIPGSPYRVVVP

For `O=S(=O)(c1ccc(F)cc1)N1CCOC12CCN(CC1CC1)CC2` [F-C0134], in assay [1] (56 mg/kg), the “Maximum Antinociception (%)” value was determined as 93%. For the same compound, the “Time to Max.” value in assay [1] (56 mg/kg) was 20 min. Besides, the “TNF-α Average % (±SEM)” value in assay [2] (setting [6]) is 75.7 (1.8) %; in assay [2] (setting [7]), 77.4 (4.2) %; in assay [2] (setting [8]) it was 75.4 (1.6) %; in assay [2] (setting [9]), 77.0 (2.8) %. Also, the “IL-6 Average % (±SEM)” value is 78.8 (1.5) % in assay [3] (setting [6]), 78.2 (1.8) % in assay [3] (setting [7]), 76.3 (2.8) % in assay [3] (setting [8]) and 81.3 (2.4) % in assay [3] (setting [9]). Also, the “IL-1β Average % (±SEM)” value in assay [4] (setting [6]) is recorded as 78.0 (5.5) %; in assay [4] (setting [7]), 77.7 (2.9) %; in assay [4] (setting [8]), 73.2 (3.9) %; in assay [4] (setting [9]), 73.3 (5.3) %.
Turning to `C=CCN1CC[C@]23c4c5ccc(O)c4O[C@H]2C(=O)CC[C@@]3(O)[C@H]1C5` [NLX, naloxone, reference compound], the Kd at filamin A is about 4 pM. The inhibition at 0.01 µM in assay [5] (0.01 μM compound) amounted to 40.6%. Also, the inhibition at 0.1 µM in assay [5] (0.1 μM compound) worked out at 47.8%. The inhibition at 1 µM in assay [5] (1 μM compound) came out at 51.5%.
With `COc1ccc(S(=O)(=O)N2CCSC23CCNCC3)cc1` [S-C0027], the “MOR agonist activity, [35S]GTPγS binding to Gαo” value at mu opiate receptor (MOR) (0.1 μM compound, striatal membranes) turned out to be 156.2%; at mu opiate receptor (MOR) (1 μM compound + BFNA (1 μM β-funaltrexamine)), 56.2%; on mu opiate receptor (MOR) (1 μM compound, striatal membranes) it was 286.8%. Besides, the “Maximum Antinociception (%)” value in assay [1] (56 mg/kg) was 70%; in assay [1] (100 mg/kg) it was 90%. The “Time to Max.” value in assay [1] (56 mg/kg) and in assay [1] (100 mg/kg) was 30 min each time. The “TNF-α Average % (±SEM)” value in assay [2] (setting [6]) was 73.6 (3.8) %; in assay [2] (setting [7]), 72.7 (0.7) %; in assay [2] (setting [8]) it was 74.0 (1.7) %; in assay [2] (setting [9]) it was 77.7 (2.7) %. Also, the “IL-6 Average % (±SEM)” value in assay [3] (setting [6]) was 75.6 (1.5) %; in assay [3] (setting [7]) it was 77.4 (4.2) %; in assay [3] (setting [8]) it was 83.1 (2.1) %; in assay [3] (setting [9]), 81.0 (1.7) %. Besides, the “IL-1β Average % (±SEM)” value is 85.8 (1.3) % in assay [4] (setting [6]), 81.9 (2.3) % in assay [4] (setting [7]), 79.5 (2.4) % in assay [4] (setting [8]) and 86.8 (2.0) % in assay [4] (setting [9]).
